From the supplement of paper PMC8671470

What was measured:
Test in all cases: cell viability (% survival relative to DMSO control, bortezomib = 0%); higher = less cytotoxic
Conditions in all cases: 72 h
HL-60 = test system: HL-60
In short: (§1)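 Reported values are percent survival from duplicate wells, averaged. Fifteen myeloid leukaemia cell lines were treated in 384-well plates with compounds at 1, 10, 100, 1000 or 10000 nM for 72 h at 37 °C in 5% CO2. Signals from CellTiter-Glo luminescence were scaled with vehicle as 100% and a 10 µM positive control as 0%.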

K-562 = test system: K-562
In short: as §1

ML-2 = test system: ML-2
In short: as §1

MV4-11 = test system: MV4-11
In short: as §1

SMILES	cell viability (HL-60; 1 nM)	cell viability (HL-60; 10 nM)	cell viability (HL-60; 100 nM)	cell viability (HL-60; 1000 nM)	cell viability (HL-60; 10000 nM)	cell viability (K-562; 1 nM)	cell viability (K-562; 10 nM)	cell viability (K-562; 100 nM)	cell viability (K-562; 1000 nM)	cell viability (K-562; 10000 nM)	cell viability (ML-2; 1 nM)	cell viability (ML-2; 10 nM)	cell viability (ML-2; 100 nM)	cell viability (ML-2; 1000 nM)	cell viability (ML-2; 10000 nM)	cell viability (MV4-11; 1 nM)	cell viability (MV4-11; 10 nM)	cell viability (MV4-11; 100 nM)	cell viability (MV4-11; 1000 nM)	cell viability (MV4-11; 10000 nM)
COc1cc2c(NC3CCN(C)CC3)nc(N3CCCN(C)CC3)nc2cc1OCCCN(C)C [UNC0224]	92.3%	123%	97.8%	89.5%	65.1%	95%	106%	102%	102%	88.8%	94%	111%	95%	99.6%	97.2%	97.8%	98.7%	95.2%	91.4%	64%
CN(C)c1nc(O)c2[nH]cnc2n1 [2-Dimethylamino-6-hydroxypurine]	103%	81.4%	79.9%	110%	90.1%	108%	89.2%	92.2%	117%	92%	97.7%	89.6%	95.3%	107%	94.5%	101%	98.8%	97.2%	102%	89.8%
O=C(O)c1cc2sccc2[nH]1 [4H-thieno[3,2-b]pyrrole-5-carboxylic acid]	117%	104%	90.6%	69.1%	95.3%	86.6%	106%	101%	101%	105%	105%	96.6%	84.2%	99.1%	113%	107%	93%	93.2%	92.9%	96.8%
C1CCC(C(CC2CCCCN2)C2CCCCC2)CC1.O=C(O)/C=C\C(=O)O (centres undefined) [Perhexiline]	91.2%	90.1%	110%	93%	-0.124%	98.5%	97.3%	110%	103%	0.792%	76.3%	87.2%	89.7%	92.8%	0.081%	100%	101%	95.3%	91.8%	0.781%
O=C1Oc2ccccc2C(=O)C1CC1C(=O)Oc2ccccc2C1=O (centres undefined) [Dicumarol]	98.3%	102%	101%	104%	112%	95.1%	106%	97.2%	100%	95.8%	93.8%	91.9%	99.2%	104%	95.4%	89.7%	111%	87%	97.5%	93.6%
CCOC(=O)N1c2ccc(C(F)(F)F)cc2[C@@H](N(Cc2cc(C(F)(F)F)cc(C(F)(F)F)c2)C(=O)OC)C[C@H]1CC [Torcetrapib]	92.7%	109%		107%	91%	103%	109%	121%	98.6%	94.4%	89.8%	97%	118%	80.9%	57.8%	103%	105%	147%	84.6%	53.3%
Nc1ccn([C@@H]2O[C@H](CO)[C@@H](O)[C@@H]2O)c(=O)n1 [Cytarabine]	100%	95.1%	82.3%	28%	0.475%	104%	70%	57.6%	32.4%	24.4%	106%	98.5%	32%	0.0645%	1.39%	103%	89.2%	84.2%	34.4%	0.163%
CC(C(=O)O)C(=O)O [Methylmalonate]	84.9%	104%	92.2%	116%	90.1%	95.3%	101%	106%	95.2%	107%	87.4%	96.5%	96.6%	92.2%	87.9%	94.7%	80.3%	107%	97.1%	102%
CC(C)C[C@H](NC(=O)[C@@H](O)[C@H](N)Cc1ccccc1)C(=O)O [Ubenimex]	98.3%	124%	98.7%	77.9%	97%	111%	102%	113%	89.6%	102%	108%	109%	101%	87.3%	99.8%	100%	103%	109%	99.8%	143%
Cc1noc2c1-c1ccccc1C(c1ccc(Cl)cc1)=N[C@H]2CC(N)=O [CPI-0610]	110%	102%	69.4%	33%	16.1%	87.7%	88.2%	80.7%	32.1%	34.5%	108%	91.2%	92.5%	62.9%	33.9%	86.1%	84%	57.2%	3.4%	1.28%
O=C(c1ccc(OCCN2CCCCC2)cc1)c1c(-c2ccc(O)cc2)sc2cc(O)ccc12 [Raloxifene]	99.3%	90.6%	99.8%	110%	62.1%	99.7%	99.3%	98.5%	98.8%	77.3%	101%	91.2%	101%	96.9%	82.9%	93.9%	102%	85.4%	93.3%	58.9%
C=CCc1ccc2c(c1O)C(=O)c1ccccc1C2=O [R162]	98.1%	104%	95.6%	92.5%	101%	99.5%	95.2%	94%	118%	98.5%	99.4%	99.2%	97.8%	101%	90.8%	100%	97.4%	102%	130%	121%
NC(=O)c1ncn([C@@H]2O[C@H](CO)[C@@H](O)[C@H]2O)n1 [Ribavirin]	92.6%	101%	130%	110%	149%	82.4%	95.1%	119%	107%	103%	95.4%	103%	97.7%	94.3%	111%	110%	92.1%	89.8%	137%	81.8%
O=C(O)CC[C@H](NC(=O)c1ccc([N+](=O)[O-])cc1)C(=O)O [(S)-2-(4-Nitrobenzamido)pentanedioic acid]	78%	107%	113%	83.6%	93.7%	76.6%	91.8%	84.6%	102%	110%	103%	91.2%	101%	93.7%	95.4%	89.6%	103%	80%	96.6%	85.9%
